Reference: ChEMBL document CHEMBL1201862, “PubChem BioAssay data set” (2004)
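Tested at 5 concentrations; 48 h exposure; 96-well plates; endpoints linearly interpolated, else capped at highest concentration. GI50 = concentration required for 50% inhibition of growth.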 Activity calls are given as the source filed them. No stated cut-off is given here; in the data, active = GI50 up to about 1.1 µM and inactive = higher.

Experiments:
Test in all cases: growth of human tumour cells (NCI), 48 h
[1] = system: DLD-1
[2] = system: HOP-18
[3] = system: KM-20L2
[4] = system: LXFL 529
[5] = system: M19-MEL
[6] = system: SNB-78
[7] = system: T47D
[8] = system: XF498
[9] = system: RXF 631

CN(C)CCNc1ccc2ncn3c4ccc(O)cc4c(=O)c1c23
GI50 [1]: 1.08 µM (active) | GI50 [2]: 10.6 µM (inactive) | GI50 [3]: 2.38 µM (inactive) | GI50 [4]: 1.41 µM (inactive) | GI50 [5]: 1.09 µM (active) | GI50 [6]: 3.03 µM (inactive) | GI50 [7]: 10.2 µM (inactive) | GI50 [8]: 4.13 µM (inactive)

N#CC1C(=O)NC(=O)C1=O (stereo not drawn)
GI50 [2]: > 100 µM (inactive) | GI50 [3]: > 100 µM (inactive) | GI50 [4]: > 100 µM (inactive) | GI50 [5]: > 100 µM (inactive) | GI50 [9]: > 100 µM (inactive) | GI50 [6]: > 100 µM (inactive) | GI50 [8]: > 100 µM (inactive)

O/N=C/c1ccc(O)c(O)c1
GI50 [1]: > 100 µM (inactive) | GI50 [3]: > 100 µM (inactive) | GI50 [4]: 84.9 µM (inactive) | GI50 [5]: > 100 µM (inactive) | GI50 [6]: > 100 µM (inactive) | GI50 [8]: > 100 µM (inactive)

Cn1cc2ccccc2c1-c1nc(F)nc(Oc2ccc3c(c2)CC[C@@H]2C3CC[C@@]3(C)C2CC[C@@H]3O)n1 (stereo partly drawn)
GI50 [1]: 7.16 µM (inactive) | GI50 [2]: 18.2 µM (inactive) | GI50 [3]: 19.1 µM (inactive) | GI50 [4]: 3.71 µM (inactive) | GI50 [5]: 7.98 µM (inactive) | GI50 [6]: 22.3 µM (inactive)

Cc1cc(NS(=O)(=O)c2ccc(NC(=O)c3cccc4c(=O)c5ccccc5[nH]c34)cc2)no1
GI50 [1]: 61.4 µM (inactive) | GI50 [2]: 10.2 µM (inactive) | GI50 [3]: > 100 µM (inactive) | GI50 [4]: 15.7 µM (inactive) | GI50 [5]: 39.4 µM (inactive) | GI50 [6]: 38.7 µM (inactive) | GI50 [8]: 13.6 µM (inactive)

O=C1NN=CN2C(=O)CCC12 (stereo not drawn)
GI50 [1]: > 100 µM (inactive) | GI50 [3]: > 100 µM (inactive) | GI50 [4]: > 100 µM (inactive) | GI50 [5]: > 100 µM (inactive) | GI50 [9]: > 100 µM (inactive) | GI50 [6]: > 100 µM (inactive) | GI50 [8]: > 100 µM (inactive)

O=C1CCC2CCOc3ccc(O)c1c32 (stereo not drawn)
GI50 [1]: > 100 µM (inactive) | GI50 [3]: > 100 µM (inactive) | GI50 [5]: > 100 µM (inactive) | GI50 [9]: > 100 µM (inactive) | GI50 [6]: > 100 µM (inactive)

O=C(O)CC1CC=C[C@H]2c3cc4c(cc3C(=O)NC12)OCO4 (stereo partly drawn)
GI50 [1]: > 75 µM (inactive) | GI50 [3]: > 75 µM (inactive) | GI50 [4]: > 75 µM (inactive) | GI50 [5]: > 75 µM (inactive) | GI50 [6]: > 75 µM (inactive)

Nc1nc(S)nc(C(=O)Nc2ccc(Cl)c(Cl)c2)c1-c1ccc(Cl)cc1
GI50 [1]: > 100 µM (inactive) | GI50 [2]: > 100 µM (inactive) | GI50 [3]: > 100 µM (inactive) | GI50 [4]: > 100 µM (inactive) | GI50 [5]: > 100 µM (inactive) | GI50 [9]: > 100 µM (inactive) | GI50 [8]: > 100 µM (inactive)

CCCN(CCC)C(=O)c1nc(N)nc(-c2ccc(OC)cc2)c1-c1ccc(OC)cc1
GI50 [1]: > 100 µM (inactive) | GI50 [2]: 46.7 µM (inactive) | GI50 [3]: > 100 µM (inactive) | GI50 [4]: 82 µM (inactive) | GI50 [9]: > 100 µM (inactive) | GI50 [6]: 80.5 µM (inactive) | GI50 [8]: > 100 µM (inactive)

CS(=O)(=O)OCCN1CCN(C(=O)c2cccc3c(Nc4ccc(S(N)(=O)=O)cc4)c4ccccc4nc23)CC1
GI50 [1]: > 46.8 µM (inactive) | GI50 [2]: > 100 µM (inactive) | GI50 [3]: > 100 µM (inactive) | GI50 [4]: > 100 µM (inactive) | GI50 [5]: > 81.8 µM (inactive) | GI50 [9]: > 100 µM (inactive) | GI50 [6]: > 100 µM (inactive) | GI50 [8]: > 100 µM (inactive)

O=C1[C@H]2ON(c3ccccc3)C(c3ccco3)[C@H]2C(=O)N1c1ccc(Cc2ccc(N3C(=O)[C@@H]4ON(c5ccccc5)C(c5ccco5)[C@@H]4C3=O)cc2)cc1 (stereo partly drawn)
GI50 [1]: > 100 µM (inactive) | GI50 [2]: > 100 µM (inactive) | GI50 [3]: > 100 µM (inactive) | GI50 [4]: > 100 µM (inactive) | GI50 [5]: > 100 µM (inactive) | GI50 [6]: > 100 µM (inactive) | GI50 [8]: 42.7 µM (inactive)

C(/COc1cccnc1)=N\NC1=NCCN1
GI50 [1]: > 100 µM (inactive) | GI50 [2]: > 100 µM (inactive) | GI50 [3]: > 100 µM (inactive) | GI50 [4]: > 100 µM (inactive) | GI50 [5]: > 100 µM (inactive) | GI50 [6]: > 100 µM (inactive) | GI50 [8]: > 100 µM (inactive)

CCc1cc(C)cc2[n+]1CC=C2.[O-][Cl+3]([O-])([O-])[O-]
GI50 [2]: 0.0676 µM (active) | GI50 [3]: 21.5 µM (inactive) | GI50 [4]: 4.17 µM (inactive) | GI50 [5]: 13.8 µM (inactive) | GI50 [6]: 33.9 µM (inactive) | GI50 [8]: 2.56 µM (inactive)

Cc1cc(N(CCC#N)CCC#N)ccc1/N=N/c1ccc(C(=O)O)cc1
GI50 [2]: 58.9 µM (inactive) | GI50 [4]: > 100 µM (inactive) | GI50 [5]: > 100 µM (inactive) | GI50 [6]: > 100 µM (inactive) | GI50 [8]: > 100 µM (inactive)
